Key:
[1] = biological target: Sodium/potassium-transporting ATPase; test: Inhibition of myocardial Na+/K+ ATPase from canine cardiac sarcolemma; assay type: protein-complex assay, Canis lupus familiaris
Cavia porcellus = organism: Cavia porcellus; test: Compound was evaluated for inotropic activity in guinea pig papillary muscle; assay type: functional; settings: Muscle tissue

Row | Structure (SMILES) | IC50 [1] [µM] | EC50 (Cavia porcellus) [µM]
1 | C[C@@H](Nc1ncc(-c2ccccc2)n1C)c1ccccc1 | 10 | –
2 | COc1cc2c(cc1OC)-c1cnc(NCc3ccccc3)n1CC2 | – | 1
3 | CCC(Nc1ncc(-c2ccccc2)n1C)c1ccc(Cl)cc1 (centres undefined) | 0.8 | –
4 | C[C@H](Nc1ncc(-c2ccccc2)n1C)c1ccccc1 | 61 | –
5 | CC(Nc1ncc(-c2cccc(-c3ccccc3)c2)n1C)c1ccccc1 (centres undefined) | 14 | –
6 | CC(Nc1ncc(-c2ccccc2)n1C)c1ccc(Cl)cc1 (centres undefined) | 1.3 | –
7 | CC(Nc1ncc(-c2ccccc2)n1C)c1ccccc1 (centres undefined) | 38 | –
8 | CC(Nc1ncc(-c2ccc(OC(F)(F)F)cc2)n1C)c1ccccc1 (centres undefined) | 33 | –

Further compounds by falling IC50 [1], results first:

Row | IC50 [1] [µM] | EC50 (Cavia porcellus) [µM] | Structure (SMILES)
9 | 99 | – | COc1ccc(-c2cnc(NC(C)c3ccccc3)n2C)cc1OC (centres undefined)
10 | 88 | – | CC(Nc1ncc(-c2cc(C(F)(F)F)cc(C(F)(F)F)c2)n1C)c1ccccc1 (centres undefined)
11 | 77 | – | CCC(C)C(Nc1ncc(-c2ccccc2)n1C)c1ccccc1 (centres undefined)
12 | 52 | – | CC(Nc1ncc(-c2cc(F)cc(F)c2)n1C)c1ccccc1 (centres undefined)
13 | 10 | – | CC(Nc1ncc(-c2ccccc2)n1C)c1ccc(F)cc1 (centres undefined)
14 | 2.1 | – | CC(Nc1ncc(-c2ccc3ccccc3c2)n1C)c1ccccc1 (centres undefined)
